Assays:
NB-4 [1] = assay: Induction of apoptosis in human NB4 cells assessed as viable cells at 2.5 uM after 48 hrs using annexin V-fluos/propidium iodide staining by cytofluorimetric analysis; assay type: functional; conditions: NB-4, 48 h, read-out: Activity
NB-4 [2] = assay: Induction of apoptosis in human NB4 cells assessed as necrotic cells at 2.5 uM after 48 hrs using annexin V-fluos/propidium iodide staining by cytofluorimetric analysis; assay type: functional
NB-4 [3] = assay: Induction of apoptosis in human NB4 cells assessed as late apoptotic cells at 2.5 uM after 48 hrs using annexin V-fluos/propidium iodide staining by cytofluorimetric analysis; assay type: functional
NB-4 [4] = assay: Induction of apoptosis in human NB4 cells assessed as early apoptotic cells at 2.5 uM after 48 hrs using annexin V-fluos/propidium iodide staining by cytofluorimetric analysis; assay type: functional
NB-4 [5] = assay: Antiproliferative activity against human NB4 cells after 48 hrs; assay type: functional, cell-based; conditions: NB-4, 48 h
NB-4 [6] = assay: Induction of apoptosis in human NB4 cells assessed as early apoptotic cells at 5 uM after 48 hrs using annexin V-fluos/propidium iodide staining by cytofluorimetric analysis; assay type: functional
NB-4 [7] = assay: Induction of apoptosis in human NB4 cells assessed as late apoptotic cells at 5 uM after 48 hrs using annexin V-fluos/propidium iodide staining by cytofluorimetric analysis; assay type: functional
NB-4 [8] = assay: Induction of apoptosis in human NB4 cells assessed as necrotic cells at 5 uM after 48 hrs using annexin V-fluos/propidium iodide staining by cytofluorimetric analysis; assay type: functional
NB-4 [9] = assay: Induction of apoptosis in human NB4 cells assessed as viable cells at 5 uM after 48 hrs using annexin V-fluos/propidium iodide staining by cytofluorimetric analysis; assay type: functional; conditions: NB-4, 48 h, read-out: Activity

Work on C[C@H]1N=C(c2ccccc2)c2cc(C#CCCCC(=O)NO)ccc2N(C)C1=O yielded a viability at 2.5 µM (NB-4 [1]) of 89.8%, an Activity (NB-4 [2]) of 0.4% and an Activity (NB-4 [3]) of 8.3%. It also gave an Activity (NB-4 [4]) of 1.5% and an IC50 (NB-4 [5]) of 4.8 µM.
Work on CN1C(=O)CN=C(c2ccccc2)c2cc(NC(=O)CCCCCCC(=O)NO)ccc21 yielded an IC50 (NB-4 [5]) of 2.5 µM.
Work on CC1N=C(c2ccccc2)c2cc(NC(=O)CCCCCCC(=O)NO)ccc2N(C)C1=O (racemic) yielded an IC50 (NB-4 [5]) of 4.09 µM.
CC1N=C(c2ccccc2)c2cc(C#CCCCC(=O)NO)ccc2N(C)C1=O (racemic) was tested, and the Activity (NB-4 [6]) was 35.6%, the Activity (NB-4 [7]) was 54.1% and the Activity (NB-4 [8]) was 1.7%. The viability at 5 µM (NB-4 [9]) was 8.6% and the IC50 (NB-4 [5]) was 1.26 µM.
C[C@H]1N=C(c2ccccc2)c2cc(NC(=O)CCCCCCC(=O)NO)ccc2N(C)C1=O gave an IC50 (NB-4 [5]) of 3.71 µM.
Work on CN1C(=O)CN=C(c2ccccc2)c2cc(C#CCCCC(=O)NO)ccc21 yielded an IC50 (NB-4 [5]) of 0.62 µM.
In the case of C[C@@H]1N=C(c2ccccc2)c2cc(NC(=O)CCCCCCC(=O)NO)ccc2N(C)C1=O, the IC50 (NB-4 [5]) is reported as 5.83 µM.
C[C@@H]1N=C(c2ccccc2)c2cc(C#CCCCC(=O)NO)ccc2N(C)C1=O gave a viability at 2.5 µM (NB-4 [1]) of 12%, an Activity (NB-4 [2]) of 0.6% and an Activity (NB-4 [3]) of 56.6%. For the same compound, the Activity (NB-4 [4]) was 30.8% and the IC50 (NB-4 [5]) was 0.61 µM.
